Results taken from PMC10490225, “Genome-Wide Characterization of Soybean Hexokinase Genes Reveals a Positive Role of GmHXK15 in Alkali Stress Response” (Plants, 2023).

Test system: T1, GmHXK15
T1 construct: CDS in pET32a(+) (NcoI/XhoI), His-tagged fusion, E. coli Rosetta / DE3, Ni-NTA
Assay: initial velocity, Michaelis-Menten / Eadie-Hofstee
Format: biochemical, Glycine max
Details: assay pH, temperature and ATP not stated

SMILES	Km (varied fructose)	Km (varied glucose)
OCC1(O)OC[C@@H](O)[C@@H](O)[C@@H]1O (some centres unmarked) [fructose]	1300 µM	–
OC[C@H]1OC(O)[C@H](O)[C@@H](O)[C@@H]1O (some centres unmarked) [glucose]	–	60 µM
